Experimental data published in patent publication US6887897B2, “Calcium glutarate supplement and phosphorus binder” (Mission Pharmacal Company, priority 2001, dated 2005).

Legend:
[1] = aqueous solubility of calcium salts; type: physicochemical
Protocol: (§1) The following in-vitro tests were conducted to test the solubility and ability of calcium glutarate to bind with phosphates. The tests included analysis for monobasic, Ca(Na2PO4)2, dibasic, CaNaPO4, and tribasic, Ca(PO4)2 binding. The three examples are as follows.

[2] = in-vitro test of ability of calcium glutarate to bind with phosphates (free calcium in filtrate by atomic absorption spectrometry); conditions: filtered through 0.45-μm nylon filter
Protocol: as §1
(§2) An aqueous solution of calcium glutarate was mixed with a twice over molar solution of sodium phosphate. A suspension formed which was filtered by a vacuum through a 0.45-μm nylon filter. The resulting filtrate was assayed for free calcium by atomic absorption spectrometry. The percent of calcium recovered in solution was 0.1%.
as §2, with “mixed with an equi-molar solution of” for “mixed with a twice over molar solution of”, “filtered by vacuum through” for “filtered by a vacuum through”
An aqueous solution of calcium glutarate was mixed with a two-thirds molar solution of sodium phosphate. A suspension formed which was filtered by vacuum through a 0.45-μm nylon filter. The resulting filtrate was assayed for free calcium by atomic absorption spectrometry. The percent of calcium, recovered in solution was 4.5%.

O=C([O-])CCCC(=O)[O-].[Ca+2] [calcium glutarate]
solubility [1]: about 5.2 gm per 100 cc
percent of calcium recovered in solution ([2]; mixed with a twice over molar solution of sodium phosphate): 0.1%
percent of calcium recovered in solution ([2]; mixed with a two-thirds molar solution of sodium phosphate): 4.5%
percent of calcium recovered in solution ([2]; mixed with an equi-molar solution of sodium phosphate): 0.1%
